Here are results for one molecule from patent US6140368A, “Naphthols useful in antiviral methods” (The Regents of the University of California, priority 1998, dated 2000).

Where “and” joins values, the source holds several entries; their conditions need not be identical. Equal entries are not always repeated. Where two headings read alike, the source gives them in different places.

The target of assay [1] is T1, L100I mutant reverse transcriptase (Human immunodeficiency virus type 1 BH10, UniProt P03366, L699I).
T1 construct: mature RT cut from Gag-Pol polyprotein
In words: biochemical.

For assay [2], the target named is HIV reverse transcriptase (Human immunodeficiency virus type 1 group M subtype B, UniProt P03366). Description: Reverse transcriptase scintillation proximity assay (Example 4, Table 2). Type of assay: biochemical. The following applies: read-out: IC50 (RT activity). The gist of the method:
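Purified RT with biotinylated 17mer/50mer RNA-DNA template-primer (39 nm), pH 8.0 Tris with 10 mM MgCl2, 60 mM KCl, dNTPs plus tritiated dTTP; inhibitor preincubated 10 min at 37 °C before enzyme, reaction 3 min. Incorporation read by streptavidin SPA counting.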
Background: SPA uses beads or plates that emit light when radiolabelled molecules are held near them.

The target in assay [3] is T2, V106A mutant reverse transcriptase (Human immunodeficiency virus type 1 BH10, UniProt P03366, V705A).
T2 construct: mature chain of Gag-Pol polyprotein
Description: biochemical. Type of assay: biochemical.

The target in another assay is T3, WT reverse transcriptase (Human immunodeficiency virus type 1 BH10, UniProt P03366).
T3 construct: mature chain of Gag-Pol polyprotein
In words: Reverse transcriptase mutant assay, WT. Type of assay: biochemical, HIV-1. The method, then: (§1) The mutants were constructed using BspMI cassette mutagenesis as described previously by Boyer et al. (J Virol., 66:1031-1039 and 7533-7537 (1992)), which is hereby incorporated by reference. The RT assay has also been previously described by Boyer et al. (PNAS USA, 91:4882-4886 (1994)), which is also incorporated by reference. Briefly, RNA dependent DNA polymerase activity is assayed using purified RT protein and a poly(rC).olio(dG) template-primer as the substrate. The protein (1 μg) and substrate are assayed in a total reaction volume of 100 μl containing 0.01 unites poly(rC).olio(dG), 0.02 mM dGTP, 0.002 mCi [α-^32 P]dGTP, and a buffer containing 25 mM tris (pH 8.0), 75 mM KCL, 8.0 mM MgCl2, 2.0 mM dithiothreitol, and 10 mM 3-[(3-cholamidopropyl) diethylammoniol]-1-propane-sulfonate containing acetylated bovine serum albumin at 100 μg/ml. The assay mixture is incubated for 30 minutes, and then stopped by the addition of 50 μl of a 10 mg/ml solution of sheared and denatured salmon sperm DNA followed by 3.0 ml 10 percent trichloroacetic acid. The labeled polymer is collected by suction filtration on Whatman glass GF/C and counted.

In assay [4] the target is T4, HIV integrase (Human immunodeficiency virus type 1 group M subtype B, UniProt P04585). In words: biochemical. The following applies: read-out: Inhibition of 3' processing activity (IC50).
In assay [5] the target is T4, HIV integrase. Description: biochemical. The note with it: read-out: Inhibition of strand transfer (IC50).
Assay [6] deals with T5, E138K mutant reverse transcriptase (Human immunodeficiency virus type 1 BH10, UniProt P03366, E737K).
T5 construct: mature RT cut from Gag-Pol polyprotein
Description: biochemical.

In assay [7] the test system is mutant strains of HIV reverse transcriptase. Description: Reverse transcriptase mutant assays, mutants overall. Type of assay: biochemical. The method, then:
as §1

In assay [8] the target is T6, K103N mutant reverse transcriptase (Human immunodeficiency virus type 1 BH10, UniProt P03366, K702N).
T6 construct: mature RT cut from Gag-Pol polyprotein
In words: biochemical.

The target in assay [9] is L74V mutant reverse transcriptase (Human immunodeficiency virus type 1 BH10, UniProt P03366, L673V). Description: Reverse transcriptase mutant assay, L74V. The assay is classed as biochemical, HIV-1.
The target in assay [10] is AZT-21 (M41L/D67N/K70R/T215Y/K219Q) mutant reverse transcriptase (Human immunodeficiency virus type 1 BH10, UniProt P03366, D666N/K669R/K818Q/M640L/T814Y). In words: Reverse transcriptase mutant assay, AZT-21. The note with it: for % Activity Remaining: AZT-21 {M41L/D67N/K70R/T215Y/K219Q}. The assay is classed as biochemical, HIV-1.
The target in assay [11] is T7, Y181I mutant reverse transcriptase (Human immunodeficiency virus type 1 BH10, UniProt P03366, Y780I).
T7 construct: mature chain of Gag-Pol polyprotein
Description: biochemical.

What is called remaining activity is the signal under treatment as a percentage of the control signal. Low values mean a large loss of activity, high ones a small loss of activity. For orientation: IC50 means the concentration needed to halve the response being measured.

In the case of `O=C(Nc1ccc2c(O)cc(S(=O)(=O)O)cc2c1)Nc1ccc2c(O)cc(S(=O)(=O)O)cc2c1` [Compound 1, carbonyl-J], the remaining activity at 10 µM in [1] (10 μM) was 11%; on WT reverse transcriptase (10 μM), 29%; in assay [6] (10 μM) it was 29%; in assay [8] (10 μM) it was 32%; in assay [11] (10 μM), 18%. For the same molecule, the remaining activity at 50 µM stood at 1% in assay [1] (50 μM); 4% in assay [3] (50 μM); 3% at WT reverse transcriptase (50 μM); 4% in assay [6] (50 μM); 3% in assay [8] (50 μM); 1% in assay [11] (50 μM). The IC50 in assay [2] was ~5 µM and 5 µM; on HIV integrase [4], 2.5 µM; at HIV integrase [5], 2.5 µM. In addition, the “% Activity Remaining” value turned out to be 33% in assay [3] (10 μM); 34% in assay [9] (10 μM); 6% in assay [9] (50 μM); 33% in assay [10] (10 μM); 4% in assay [10] (50 μM). Moreover, the “activity against mutant reverse transcriptases” value in assay [7] is reported as “displays activity against non-nucleoside mutants as well as other mutants”. In addition, the “difference in inhibition with respect to the wild type enzyme” value in assay [10] (mutant M41L/D67N/K70R/T215Y/K219Q) is listed as “virtually no difference in inhibition was found with respect to the wild type enzyme”.
